For orientation: IC50 means the midpoint of a concentration-inhibition curve.

Drawing on patent US10213427B2 (Incyte Corporation, priority 2010, dated 2019), this text covers IC50 for 26 compounds.

SMILES strings stand for the structures.

For this experiment, the target named is FGFR3 enzyme (Millipore) (Homo sapiens (Human), UniProt P22607). Put plainly: FGFR3 Enzymatic Assay. In kind it is biochemical. Conditions: FRET peptide phosphorylation, 140 μM ATP. On the procedure: The inhibitor potency of compounds of the invention was measured in an enzyme assay that measures peptide phosphorylation using FRET measurements to detect product formation. Inhibitors were serially diluted in DMSO and a volume of 0.5 μL was transferred to the wells of a 384-well plate. A 10 μL volume of FGFR3 enzyme (Millipore) diluted in assay buffer (50 mM HEPES, 10 mM MgCl2, 1 mM EGTA, 0.01% Tween-20, 5 mM DTT, pH 7.5) was added to the plate and pre-incubated for 5-10 minutes. Appropriate controls (enzyme blank and enzyme with no inhibitor) were included on the plate. […] The plate was incubated at 25° C. for 1 hr. […] The plate was allowed to equilibrate for ˜1 hr before scanning the wells on a PheraStar plate reader.
FGFR3 enzyme (Millipore), sequence (P22607 23-806): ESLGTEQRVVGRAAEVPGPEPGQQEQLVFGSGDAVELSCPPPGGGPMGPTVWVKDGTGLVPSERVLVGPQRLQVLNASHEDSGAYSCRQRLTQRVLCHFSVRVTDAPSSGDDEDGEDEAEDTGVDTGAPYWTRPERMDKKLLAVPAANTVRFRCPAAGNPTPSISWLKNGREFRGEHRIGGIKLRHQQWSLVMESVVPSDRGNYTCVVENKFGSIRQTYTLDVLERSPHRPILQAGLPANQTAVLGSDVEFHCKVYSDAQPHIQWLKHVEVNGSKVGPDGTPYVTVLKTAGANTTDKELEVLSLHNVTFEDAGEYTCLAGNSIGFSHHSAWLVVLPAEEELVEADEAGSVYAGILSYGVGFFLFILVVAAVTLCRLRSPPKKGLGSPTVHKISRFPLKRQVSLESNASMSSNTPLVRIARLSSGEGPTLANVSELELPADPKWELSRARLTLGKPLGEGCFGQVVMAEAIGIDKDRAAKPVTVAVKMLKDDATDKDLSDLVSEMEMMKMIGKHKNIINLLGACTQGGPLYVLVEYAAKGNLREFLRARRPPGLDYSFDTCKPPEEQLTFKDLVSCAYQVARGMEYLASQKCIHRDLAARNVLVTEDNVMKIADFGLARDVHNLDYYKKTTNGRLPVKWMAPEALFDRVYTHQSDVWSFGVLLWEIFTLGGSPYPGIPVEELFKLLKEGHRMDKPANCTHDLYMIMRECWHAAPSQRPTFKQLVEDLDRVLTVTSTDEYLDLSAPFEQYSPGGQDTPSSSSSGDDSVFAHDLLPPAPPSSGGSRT
GraphPad prism3 was used to analyze the data. The IC50 values were derived by fitting the data to the equation for a sigmoidal dose-response with a variable slope. Y=Bottom+(Top−Bottom)/(1+10^((Log IC50−X)*HillSlope)) where X is the logarithm of concentration and Y is the response.
As for `CC(C(=O)N1CCCC1)c1ccc(-c2ccc3c(c2)ncn3-c2cccc(NC(=O)NCC(F)(F)F)c2)cc1` (centres unmarked) [Example 17, N-(3-{5-[4-(1-Methyl-2-oxo-2-pyrrolidin-1-ylethyl)phenyl]-1H-benzimidazol-1-yl}phenyl)-N′-(2,2,2-trifluoroethyl)urea], the IC50 is < 0.01 µM.
Then `CC(C(=O)N1CCC(C#N)C1)c1ccc(-c2ccc3c(c2)ncn3-c2cccc(NC(=O)NCC(F)(F)F)c2)cc1` (centres unmarked) [Example 19, N-[3-(5-{4-[2-(3-Cyanopyrrolidin-1-yl)-1-methyl-2-oxoethyl]phenyl}-1H-benzimidazol-1-yl)phenyl]-N′-(2,2,2-trifluoroethyl)urea], with < 0.01 µM; and `CC(C(=O)N1CC(O)C1)c1ccc(-c2cnn3c(-c4cccc(NC(=O)NCC(F)(F)F)c4)cnc3c2)cc1` (centres unmarked) [Example 104, N-[3-(7-{4-[2-(3-Hydroxyazetidin-1-yl)-1-methyl-2-oxoethyl]phenyl}imidazo[1,2-b]pyridazin-3-yl)phenyl]-N′-(2,2,2-trifluoroethyl)urea], with < 0.01 µM; and `CC(C(=O)NCc1ccccn1)n1cc(-c2cnn3c(-c4cccc(NC(=O)NCC(F)(F)F)c4)cnc3c2)cn1` (centres unmarked) [Example 61, N-(Pyridin-2-ylmethyl)-2-(4-{3-[3-({[(2,2,2-trifluoroethyl)amino]carbonyl}amino)phenyl]imidazo[1,2-b]pyridazin-7-yl}-1H-pyrazol-1-yl)propanamide], with < 0.01 µM.
Regarding `O=C(NCC(F)(F)F)Nc1cccc(-n2cnc3cc(-c4ccc(C(=O)NCC5CCCO5)cc4)ccc32)c1` (centres unmarked) [Example 8, N-(Tetrahydrofuran-2-ylmethyl)-4-{1-[3-({[(2,2,2-trifluoroethyl)amino]carbonyl}amino)phenyl]-1H-benzimidazol-5-yl}benzamide], the IC50 was < 0.01 µM.
As to `O=C(NCC(F)(F)F)Nc1cccc(-c2cnc3cc(-c4cnn(C5CCN(C(=O)C6(O)CC6)CC5)c4)cnn23)c1` [Example 43, N-{3-[7-(1-{1-[(1-hydroxycyclopropyl)carbonyl]piperidin-4-yl}-1H-pyrazol-4-yl)imidazo[1,2-b]pyridazin-3-yl]phenyl}-N′-(2,2,2-trifluoroethyl)urea], the IC50 was < 0.01 µM.
Regarding `O=C(NCC(F)(F)F)Nc1cccc(-n2cnc3cc(-c4ccc(C(=O)NCC5CC5)cc4)ccc32)c1` [Example 7, N-(Cyclopropylmethyl)-4-{1-[3-({[(2,2,2-trifluoroethyl)amino]carbonyl}amino)phenyl]-1H-benzimidazol-5-yl}benzamide], the half-inhibitory concentration (IC50) was < 0.01 µM.
`CC(C(=O)N[C@@H]1CCOC1)c1ccc(-c2cnn3c(-c4cccc(NC(=O)NCC(F)(F)F)c4)cnc3c2)cc1` (stereo partly drawn) [Example 103, N-[(3R)-Tetrahydrofuran-3-yl]-2-(4-{3-[3-({[(2,2,2-trifluoroethyl)amino]carbonyl}amino)phenyl]imidazo[1,2-b]pyridazin-7-yl}phenyl)propanamide]: the IC50 is < 0.01 µM.
`O=C(NCC(F)(F)F)Nc1cccc(-c2cnc3cc(-c4cnn(C5CCN(S(=O)(=O)Cc6ccccc6)CC5)c4)cnn23)c1` [Example 34, N-[3-(7-{1-[1-(Benzylsulfonyl)piperidin-4-yl]-1H-pyrazol-4-yl}imidazo[1,2-b]pyridazin-3-yl)phenyl]-N′-(2,2,2-trifluoroethyl)urea]: the concentration for half-maximal inhibition (IC50) was < 0.01 µM.
`O=C(NCC(F)(F)F)Nc1cccc(-n2cnc3cc(-c4cnn(C5CCN(CC6CC6)CC5)c4)ccc32)c1` [Example 21, N-[3-(5-{1-[1-(Cyclopropylmethyl)piperidin-4-yl]-1H-pyrazol-4-yl}-1H-benzimidazol-1-yl)phenyl]-N′-(2,2,2-trifluoroethyl)urea]: the 50% inhibitory concentration (IC50) is < 0.01 µM.
Then `COC1CCN(C(=O)C(C)n2cc(-c3cnn4c(-c5cccc(NC(=O)NCC(F)(F)F)c5)cnc4c3)cn2)CC1` (centres unmarked) [Example 69, N-[3-(7-{1-[2-(4-Methoxypiperidin-1-yl)-1-methyl-2-oxoethyl]-1H-pyrazol-4-yl}imidazo[1,2-b]pyridazin-3-yl)phenyl]-N′-(2,2,2-trifluoroethyl)urea], with < 0.01 µM; and `O=C(NCC(F)(F)F)Nc1cccc(-n2cnc3cc(-c4ccc(C(=O)NCc5cccnc5)cc4)ccc32)c1` [Example 12, N-(Pyridin-3-ylmethyl)-4-{1-[3-({[(2,2,2-trifluoroethyl)amino]carbonyl}amino)phenyl]-1H-benzimidazol-5-yl}benzamide], with < 0.01 µM.
For the compound `CC(C(=O)N1CCC[C@H]1CO)c1ccc(-c2cnn3c(-c4cccc(NC(=O)NCC(F)(F)F)c4)cnc3c2)cc1` (stereo partly drawn) [Example 106, N-{3-[7-(4-{2-[(2S)-2-(Hydroxymethyl)pyrrolidin-1-yl]-1-methyl-2-oxoethyl}phenyl)imidazo[1,2-b]pyridazin-3-yl]phenyl}-N′-(2,2,2-trifluoroethyl)urea], the 50% inhibitory concentration (IC50) is < 0.01 µM.
`CC(C(=O)N1CCC(O)CC1)c1ccc(-c2cnn3c(-c4cccc(NC(=O)NCC(F)(F)F)c4)cnc3c2)cc1` (centres unmarked) [Example 102, N-[3-(7-{4-[2-(4-Hydroxypiperidin-1-yl)-1-methyl-2-oxoethyl]phenyl}imidazo[1,2-b]pyridazin-3-yl)phenyl]-N′-(2,2,2-trifluoroethyl)urea]: the concentration for half-maximal inhibition (IC50) was < 0.01 µM.
With `CC(C(=O)N1CCC(C#N)CC1)n1cc(-c2cnn3c(-c4cccc(NC(=O)NCC(F)(F)F)c4)cnc3c2)cn1` (centres unmarked) [Example 70, N-[3-(7-{1-[2-(4-Cyanopiperidin-1-yl)-1-methyl-2-oxoethyl]-1H-pyrazol-4-yl}imidazo[1,2-b]pyridazin-3-yl)phenyl]-N′-(2,2,2-trifluoroethyl)urea], the concentration for half-maximal inhibition (IC50) was < 0.01 µM.
Then `CC(C(=O)NC1CCOCC1)n1cc(-c2cnn3c(-c4cccc(NC(=O)NCC(F)(F)F)c4)cnc3c2)cn1` (centres unmarked) [Example 57, N-(Tetrahydro-2H-pyran-4-yl)-2-(4-{3-[3-({[(2,2,2-trifluoroethyl)amino]carbonyl}amino)phenyl]imidazo[1,2-b]pyridazin-7-yl}-1H-pyrazol-1-yl)propanamide], with < 0.01 µM; and `Cn1ccnc1CNC(=O)c1ccc(-c2ccc3c(c2)ncn3-c2cccc(NC(=O)NCC(F)(F)F)c2)cc1` [Example 13, N-[(1-Methyl-1H-imidazol-2-yl)methyl]-4-{1-[3-({[(2,2,2-trifluoroethyl)amino]carbonyl}amino)phenyl]-1H-benzimidazol-5-yl}benzamide], with < 0.01 µM.
Then `O=C(NCC(F)(F)F)Nc1cccc(-n2cnc3cc(-c4cccc(C(=O)NCc5cccnc5)c4)ccc32)c1` [Example 5, N-(Pyridin-3-ylmethyl)-3-{1-[3-({[(2,2,2-trifluoroethyl)amino]carbonyl}amino)phenyl]-1H-benzimidazol-5-yl}benzamide], with < 0.01 µM; and `N#CCC(c1ccccc1)n1cc(-c2cnn3c(-c4cccc(NC(=O)NCC(F)(F)F)c4)cnc3c2)cn1` (centres unmarked) [Example 93, N-(3-{7-[1-(2-Cyano-1-phenylethyl)-1H-pyrazol-4-yl]imidazo[1,2-b]pyridazin-3-yl}phenyl)-N′-(2,2,2-trifluoroethyl)urea], with < 0.01 µM; and `COCC(=O)N1CC(CC#N)(n2cc(-c3cnn4c(-c5cccc(NC(=O)NCC(F)(F)F)c5)cnc4c3)cn2)C1` [Example 75, N-[3-(7-{1-[3-(Cyanomethyl)-1-(methoxyacetyl)azetidin-3-yl]-1H-pyrazol-4-yl}imidazo[1,2-b]pyridazin-3-yl)phenyl]-N′-(2,2,2-trifluoroethyl)urea], with < 0.01 µM.
`O=C(NCC(F)(F)F)Nc1cccc(-c2cnc3cc(-c4cnn(C5CCN(C(=O)N6CCCC6)CC5)c4)cnn23)c1` [Example 36, N-[3-(7-{1-[1-(Pyrrolidin-1-ylcarbonyl)piperidin-4-yl]-1H-pyrazol-4-yl}imidazo[1,2-b]pyridazin-3-yl)phenyl]-N′-(2,2,2-trifluoroethyl)urea]: the IC50 was < 0.01 µM.
Take `Cn1ccnc1CNC(=O)c1cccc(-c2ccc3c(c2)ncn3-c2cccc(NC(=O)NCC(F)(F)F)c2)c1` [Example 6, N-[(1-Methyl-1H-imidazol-2-yl)methyl]-3-{1-[3-({[(2,2,2-trifluoroethyl)amino]carbonyl}amino)phenyl]-1H-benzimidazol-5-yl}benzamide]: the IC50 is < 0.01 µM.
Then `Cc1oncc1S(=O)(=O)N1CC(CC#N)(n2cc(-c3cnn4c(-c5cccc(NC(=O)NCC(F)(F)F)c5)cnc4c3)cn2)C1` [Example 74, N-{3-[7-(1-{3-(Cyanomethyl)-1-[(5-methylisoxazol-4-yl)sulfonyl]azetidin-3-yl}-1H-pyrazol-4-yl)imidazo[1,2-b]pyridazin-3-yl]phenyl}-N′-(2,2,2-trifluoroethyl)urea], with < 0.01 µM; and `N#CCC(=O)N1CCC(n2cc(-c3ccc4c(c3)ncn4-c3cccc(NC(=O)NCC(F)(F)F)c3)cn2)CC1` [Example 28, N-[3-(5-{1-[1-(Cyanoacetyl)piperidin-4-yl]-1H-pyrazol-4-yl}-1H-benzimidazol-1-yl)phenyl]-N′-(2,2,2-trifluoroethyl)urea], with < 0.01 µM; and `O=C(NCC(F)(F)F)Nc1cccc(-n2cnc3cc(-c4ccc(C(=O)NCCN5CCOCC5)cc4)ccc32)c1` [Example 11, N-(2-Morpholin-4-ylethyl)-4-{1-[3-({[(2,2,2-trifluoroethyl)amino]carbonyl}amino)phenyl]-1H-benzimidazol-5-yl}benzamide], with < 0.01 µM.
Then `CNC(=O)C(C)c1ccc(-c2cnn3c(-c4cccc(NC(=O)NCC(F)(F)F)c4)cnc3c2)cc1` (centres unmarked) [Example 98, N-Methyl-2-(4-{3-[3-({[(2,2,2-trifluoroethyl)amino]carbonyl}amino)phenyl]imidazo[1,2-b]pyridazin-7-yl}phenyl)propanamide], with < 0.01 µM.
